In ChEMBL document CHEMBL3217548, “Biological activity and DNA binding studies of 2-substituted benzimidazo[1,2-a]quinolines bearing different amino side chains” (Medchemcomm, 2013):
Calls of active or inactive are those of the source. The calls are words filed in the database; no cut-off is given here.

Tests used:
HCT-116 = test: Cytotoxicity against human HCT116 cells after 72 hrs by MTT assay; format: functional, cell-based; settings: HCT-116, 72 h
[1] = Cytotoxicity against human H460 cells after 72 hrs by MTT assay; format: functional, cell-based; settings: NCI-H460, 72 h
MCF7 = test: Cytotoxicity against human MCF7 cells after 72 hrs by MTT assay; format: functional, cell-based; settings: MCF7, 72 h
Escherichia coli = test: Binding affinity to Escherichia coli pUC19 plasmid assessed as nicked DNA at 5 to 50 uM by ethidium bromide staining-based agarose gel electrophoresis
Homo sapiens = organism: Homo sapiens; test: Inhibition of human DNA topoisomerase 2 assessed as inhibition of DNA cleavage
[2] = target: T1, DNA topoisomerase 1 (Homo sapiens) (UniProt P11387); test: Inhibition of human DNA topoisomerase 1 assessed as inhibition of DNA cleavage
T1 sequence (whole entry): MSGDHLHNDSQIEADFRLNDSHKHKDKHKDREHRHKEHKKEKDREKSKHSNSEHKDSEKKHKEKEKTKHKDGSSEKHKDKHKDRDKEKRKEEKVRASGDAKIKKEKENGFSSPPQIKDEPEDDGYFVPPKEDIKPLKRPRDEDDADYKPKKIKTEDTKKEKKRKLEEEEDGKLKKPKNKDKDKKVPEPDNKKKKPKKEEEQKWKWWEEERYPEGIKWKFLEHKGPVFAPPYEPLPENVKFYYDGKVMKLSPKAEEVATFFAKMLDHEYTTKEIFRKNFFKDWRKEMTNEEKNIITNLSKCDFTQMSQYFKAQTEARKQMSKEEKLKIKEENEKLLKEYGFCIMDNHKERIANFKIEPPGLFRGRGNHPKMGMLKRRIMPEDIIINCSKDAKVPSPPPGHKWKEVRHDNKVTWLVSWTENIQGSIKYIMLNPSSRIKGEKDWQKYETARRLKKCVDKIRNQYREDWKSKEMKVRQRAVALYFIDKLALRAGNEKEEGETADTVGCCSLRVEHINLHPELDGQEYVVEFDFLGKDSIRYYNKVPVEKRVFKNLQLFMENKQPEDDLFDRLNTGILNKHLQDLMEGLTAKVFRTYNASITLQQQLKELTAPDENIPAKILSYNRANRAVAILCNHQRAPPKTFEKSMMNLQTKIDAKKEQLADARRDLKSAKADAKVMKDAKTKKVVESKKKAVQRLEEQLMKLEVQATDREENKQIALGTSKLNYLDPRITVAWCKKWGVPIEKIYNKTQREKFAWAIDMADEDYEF

Nucleic Acid = test: DNA intercalating activity at Escherichia coli pUC19 plasmid assessed as effect on global structure of DNA helix at 5 to 50 uM incubated for 45 mins prior to topoisomerase1 addition by agarose gel electrophoresis; format: nucleic-acid assay
Calf thymus DNA [3] = test: Binding affinity to calf thymus DNA assessed as DNA intercalation at 1 to 50 uM by circular dichroism analysis; format: nucleic-acid assay; settings: Bos taurus
Calf thymus DNA [4] = test: Binding affinity to calf thymus DNA assessed as change in melting temperature at 0.5 drug/DNA ratio by spectrophotometry; format: nucleic-acid assay; settings: Bos taurus
DNA = test: Induction of DNA damage in plasmid DNA in E. coli S30 cell-free system assessed as inhibition of EGFP translation at 50 uM after 1 hr by fluorescence assay

| Compound | IC50 (HCT-116) [nM] | IC50 [1] [nM] | IC50 (MCF7) [nM] | Activity (Escherichia coli) | Activity (Homo sapiens) | Activity [2] | Activity (Nucleic Acid) | Activity (Calf thymus DNA [3]) | ΔTm (Calf thymus DNA [4]) [°C] | inhibition (DNA) |
| --- | --- | --- | --- | --- | --- | --- | --- | --- | --- | --- |
| CCCCNc1ccc2cc(C#N)c3nc4ccccc4n3c2c1 | 4000 | 2000 | 1000 | – | – | – | – | – | – | – |
| CCCCCN(CCCCC)c1ccc2cc(C#N)c3nc4ccccc4n3c2c1 | > 10000 | > 10000 | 39000 | Active | inactive | inactive | inactive | inactive | 0 | – |
| N#Cc1cc2ccc(N3CCCCC3)cc2n2c1nc1ccccc12 | 8000 | 5000 | 2000 | Active | inactive | inactive | inactive | inactive | 0 | – |
| CCCN(CCC)c1ccc2cc(C#N)c3nc4ccccc4n3c2c1 | 500 | 300 | 2500 | – | – | – | – | – | – | – |
| CCN(CC)CCNc1ccc2cc(C#N)c3nc4ccccc4n3c2c1 | 200 | 200 | 300 | – | – | – | – | – | – | – |
| CC[C@@]1(O)C(=O)OCc2c1cc1n(c2=O)Cc2cc3ccccc3nc2-1 | – | – | – | – | – | – | – | – | – | inactive |
| COc1cc([C@@H]2c3cc4c(cc3[C@@H](O[C@@H]3O[C@@H]5CO[C@@H](C)O[C@H]5[C@H](O)[C@H]3O)[C@H]3COC(=O)[C@H]23)OCO4)cc(OC)c1O | – | – | – | – | – | – | – | – | – | inactive |
